One assay deals with thromboxane synthetase. The conditions noted are these: prior art compounds, as noted in British patent specification; cited from earlier work.
For a further assay, the target named is T1, TXA2 synthetase (Homo sapiens, UniProt P24557).
T1 construct: human platelet microsomes (HPM); from tissue; host or cells: human platelet microsomes
T1 sequence (P24557 1-533): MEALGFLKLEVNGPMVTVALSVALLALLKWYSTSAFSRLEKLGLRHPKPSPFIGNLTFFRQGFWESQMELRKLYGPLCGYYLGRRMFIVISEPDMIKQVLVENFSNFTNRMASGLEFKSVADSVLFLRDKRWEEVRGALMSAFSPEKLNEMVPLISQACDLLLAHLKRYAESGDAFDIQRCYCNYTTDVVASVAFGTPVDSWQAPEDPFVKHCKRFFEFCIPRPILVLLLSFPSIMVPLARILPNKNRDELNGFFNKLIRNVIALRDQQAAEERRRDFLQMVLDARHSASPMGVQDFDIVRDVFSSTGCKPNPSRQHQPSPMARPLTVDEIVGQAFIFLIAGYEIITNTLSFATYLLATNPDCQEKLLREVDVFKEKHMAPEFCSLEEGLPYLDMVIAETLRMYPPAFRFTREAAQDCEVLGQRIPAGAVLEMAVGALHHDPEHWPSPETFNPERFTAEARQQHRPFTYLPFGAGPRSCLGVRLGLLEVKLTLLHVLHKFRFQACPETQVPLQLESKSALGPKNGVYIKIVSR
The assay is described as follows: TXA2 inhibition test: TXA2 generated from PGH2 with human platelet microsomes, response of superfused rabbit aortic strips. In kind it is biochemical. The conditions noted are these: rabbit aorta response. As for the experimental part: The compounds of the present invention were tested for TXA2 inhibition as follows:
Rabbit aortic strips were superfused in series with Krebs solution. Thromboxane A2 (TXA2) was generated by mixing prostaglandin H2 (PGH2) with human platelet microsomes (HPM).
Potential inhibitors were tested by comparing the response of the rabbit aorta to the amount of TXA2 produced by mixing PGH2 and HPM without the test compound in the reaction medium and then the amount of TXA2 produced when the test compound was added to the HPM 5 minutes before the HPM was mixed with PGH2. […] For a discussion of TXA2 synthetase inhibition testing see, e.g., R. Gorman, supra.

With `CCCCCC=CC[C@@H](C=CC=CCC=CCCCC(=O)O)OO` [12L-hydroperoxy-5,8,10,14-eicosatetraenoic acid], the “inhibitory activity on thromboxane synthetase (in words)” value (“inhibitory activity” for short) in the assay with thromboxane synthetase is recorded as “very weak”.

Regarding `c1cncc(-c2ccc3c(c2)CN2CN3Cc3cc(-c4cccnc4)ccc32)c1` [Example 1, 2,8-Di(3-pyridyl)-6H,12H-5,11-methanodibenzo[b,f][1,5]diazocine], at TXA2 synthetase, the “effectiveness in inhibiting TXA2 formation (in words)” value is listed as “most effective”. `CC(Cc1ccc(O)c(O)c1)C(C)Cc1ccc(O)c(O)c1` (stereo not shown) [nordihydroguaiaretic acid]: the “inhibitory activity” value in the assay with thromboxane synthetase is listed as “very weak”. In the case of “sodium p-benzyl-4(1-oxo-2-(4-chlorobenzyl)-3-phenylpropyl)phenyl phosphate”, the “inhibitory activity” value with thromboxane synthetase is on record as “very weak”.

(Values after US4447607A, “Dibenzo diazacines” (The Upjohn Company, priority 1982, dated 1984).)
